Patent US12233161B1, “Lipids and lipid nanoparticle formulations” (LONGUIDE BIOPHARMA CORPORATION, priority 2024, dated 2025)

How the values were obtained:
[1] = Potential characterization of nucleic acid lipid nanoparticle preparations; assay type: physicochemical; conditions: Fluc-circ-RNA LNP, preparation given IV
In short: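 Nanoparticles (about 0.04 mg/mL mRNA) were diluted in ultrapure water for Malvern ZEN3700 measurement: 20 μL into 780 μL for potential alone, or 27.5 μL into 200 μL for DLS particle size followed by addition of 600 μL water for potential.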

[2] = Particle size and PDI of nucleic acid lipid nanoparticle preparations by dynamic light scattering; assay type: physicochemical
In short: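 Nanoparticle suspension (about 0.04 mg/mL mRNA) diluted in ultrapure water, mixed by gentle pipetting; particle size measured by dynamic light scattering. Zeta potential measured on the recovered sample after further dilution in ultrapure water.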

[3] = tested on: mice; test: In vivo delivery of FLuc-circ-RNA lipid nanoparticles in mice; conditions: Fluc-circ-RNA LNP, IV
Description: Lipid nanoparticles loaded with nucleic acid drugs were prepared according to step 2, replacing FLuc-mRNA with FLuc-circ-RNA (Hongene Biotech Corporation, Shanghai). After formulation, the nanoparticles were administered via intramuscular injection (into the quadriceps femoris muscle of mice), intravenous injection (into the tail vein of mice), intraperitoneal injection, or subcutaneous injection (subcutaneously on the back). Approximately 75 μL was injected per mouse, with a total of 3 mice per group. In vivo imaging (PerkinElmer, IVIS Lumina III) was performed after a certain period of time. Ten to fifteen minutes before imaging, 200 μL of a 15 mg/mL D-Luciferin working solution was injected intraperitoneally, followed by imaging analysis using the in vivo imaging system.

[4] = tested on: mice; test: In vivo delivery of FLuc-mRNA lipid nanoparticles in mice, in vivo imaging (IVIS); conditions: for IVIS: Fluc-mRNA
In short: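 Mice (n=3) received about 75 μL FLuc-mRNA LNP per mouse intramuscularly (rectus femoris), intravenously (tail vein), intraperitoneally or subcutaneously (back). After injection, D-luciferin (200 μL, 15 mg/mL) was given i.p. 10-15 min before IVIS imaging.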

[5] = DMG-PEG2000:DOPE:Chol:compound 1.40:11.15:38.95:48.50, N/P 30
[6] = DMG-PEG2000:DSPC:Chol:compound 1.00:11.50:27.50:60.00, N/P 30
[7] = Fluc-circ-RNA LNP, preparation given IV
[8] = IV, liver, DMG-PEG2000:DOPE:Chol:compound 1.40:11.15:38.95:48.50, N/P 30
[9] = IV, liver, DMG-PEG2000:DSPC:Chol:compound 1.00:11.50:27.50:60.00, N/P 30
[10] = IV, lung, DMG-PEG2000:DOPE:Chol:compound 1.40:11.15:38.95:48.50, N/P 30
[11] = IV, lung, DMG-PEG2000:DSPC:Chol:compound 1.00:11.50:27.50:60.00, N/P 30
[12] = IV, spleen, DMG-PEG2000:DOPE:Chol:compound 1.40:11.15:38.95:48.50, N/P 30
[13] = IV, spleen, DMG-PEG2000:DSPC:Chol:compound 1.00:11.50:27.50:60.00, N/P 30

SMILES: [2H]C([2H])([2H])[N+](CCCN(CC(O)C(=O)NCCCCCCCCCCCC)CC(O)C(=O)NCCCCCCCCCCCC)(CCCN(CC(O)C(=O)NCCCCCCCCCCCC)CC(O)C(=O)NCCCCCCCCCCCC)C([2H])([2H])[2H] (stereo not shown) [Compound L0346]
- Zeta potential (mV) [1]: 14.23 mV
- PDI [2, 5]: 0.38
- Particle size (nm) [2, 5]: 78.75 nm
- PDI [2, 6]: 0.23
- Particle size (nm) [2, 6]: 157.00 nm
- PDI [2, 7]: 0.24
- Particle size (nm) [2, 7]: 161.2 nm
- % of organ targeting ([3]; liver): 0.87%
- % of organ targeting ([3]; lung): 98.45%
- % of organ targeting ([3]; spleen): 0.69%
- IVIS ([4]; IM, DMG-PEG2000:DOPE:Chol:compound 1.40:11.15:38.95:48.50, N/P 30): 3.49E+05
- IVIS ([4]; IV, body, DMG-PEG2000:DOPE:Chol:compound 1.40:11.15:38.95:48.50, N/P 30): 1.95E+08
- IVIS ([4]; IV, body, DMG-PEG2000:DSPC:Chol:compound 1.00:11.50:27.50:60.00, N/P 30): 3.93E+08
- % of organ targeting [4, 8]: 0.84%
- IVIS [4, 8]: 2.65E+06
- % of organ targeting [4, 9]: 0.56%
- IVIS [4, 9]: 7.32E+06
- % of organ targeting [4, 10]: 98.01%
- IVIS [4, 10]: 3.10E+08
- % of organ targeting [4, 11]: 98.90%
- IVIS [4, 11]: 1.28E+09
- % of organ targeting [4, 12]: 1.16%
- IVIS [4, 12]: 3.66E+06
- % of organ targeting [4, 13]: 0.54%
- IVIS [4, 13]: 6.96E+06
